Assay results from PubChem BioAssay (NCI).
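Following 48 hours of exposure in 96-well plates, responses at five concentrations were used to interpolate endpoints linearly. GI50 = concentration required for 50% inhibition of growth. The concentration for full growth arrest is given as TGI.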

Columns and labels:
Assay in all cases: NCI tumour cell line growth inhibition, 48 h
HT29 colon = test system: HT29 colon
RPMI-8226 leukemia = test system: RPMI-8226 leukemia
LOX IMVI melanoma = test system: LOX IMVI melanoma
NCI-H226 lung = test system: NCI-H226 lung
HL-60(TB) leukemia = test system: HL-60(TB) leukemia
CCRF-CEM leukemia = test system: CCRF-CEM leukemia
NCI/ADR-RES ovarian = test system: NCI/ADR-RES ovarian
SR leukemia = test system: SR leukemia
CAKI-1 renal = test system: CAKI-1 renal
PC-3 prostate = test system: PC-3 prostate

Row | SMILES | GI50 (HT29 colon) [µM] | TGI (HT29 colon) [µM] | GI50 (RPMI-8226 leukemia) [µM] | TGI (RPMI-8226 leukemia) [µM] | GI50 (LOX IMVI melanoma) [µM] | TGI (LOX IMVI melanoma) [µM] | GI50 (NCI-H226 lung) [µM] | TGI (NCI-H226 lung) [µM] | GI50 (HL-60(TB) leukemia) [µM] | TGI (HL-60(TB) leukemia) [µM] | GI50 (CCRF-CEM leukemia) [µM] | TGI (CCRF-CEM leukemia) [µM] | GI50 (NCI/ADR-RES ovarian) [µM] | TGI (NCI/ADR-RES ovarian) [µM] | GI50 (SR leukemia) [µM] | TGI (SR leukemia) [µM] | GI50 (CAKI-1 renal) [µM] | TGI (CAKI-1 renal) [µM] | GI50 (PC-3 prostate) [µM] | TGI (PC-3 prostate) [µM]
1 | O=C(Nc1cccc(C(F)(F)F)c1)c1ccc(NC2=C(Cl)C(=O)N(Cc3ccccc3)C2=O)cc1 | 13.6 | 52 | 2.17 | 4.88 | 2.45 | 6.6 | 16 | 35.8 | 2.08 | 5.64 | 3.06 | > 100 | 10.8 | 25.4 | 0.421 | 2.82 | 1.65 | 3.24 | 14 | 27
2 | Cc1c[nH]c(=O)n(Cc2nnc(CCC(=O)c3nc4ccccc4[nH]3)o2)c1=O | 0.194 | > 43.1 | 0.34 | > 100 | 0.439 | > 100 | 3.48 | > 100 | 0.966 | > 100 | 0.459 | > 100 | 14.7 | 63.8 | 0.447 | > 100 | 7.22 | > 100 | 0.477 | > 100
3 | Cc1nc2ccccc2c(/C=C/c2ccccc2)c1C(=O)/C=C/c1ccc(C(F)(F)F)cc1 | 0.632 | 4.46 | 0.394 | 3.85 | 1.09 | 2.34 | 1.73 | 3.67 | 1.7 | 5.28 | 0.381 | > 100 | 2.19 | 7.19 | 0.38 | > 100 | 1.14 | 2.44 | 1.55 | 5.02
4 | Cc1ccc(-c2nc(/C=N/Nc3cc(C)nc4ccc(Br)cc34)c(C)o2)cc1 | 1.92 | 3.82 | 2.05 | 4.71 | 1.88 | 3.57 | 15 | 42.1 | 1.9 | 4.05 | 2.17 | 5.51 | 1.99 | 4.46 | 2.67 | 7.71 | 1.73 | 3.12 | 1.71 | 3.3
5 | O=C(c1ccc2ccccc2c1)c1c(C(F)(F)F)n([O-])c2cc(C(F)(F)F)ccc2[n+]1=O | 1.74 | 3.46 | 1.25 | 3.37 | 1.63 | 3.22 | 1.49 | 3.5 | 1.54 | 3.59 |  | 0.385 | 2.08 | 4.8 | 0.86 | 2.64 | 0.621 | 1.45 | 1.34 | 2.75
6 | C=CCOc1ccc(N)c([N+](=O)[O-])c1 |  | > 100 |  | > 100 |  | > 100 |  | > 100 |  | > 100 |  | > 100 |  | > 100 |  | > 100 |  | > 100 |  | > 100
7 | COc1cc(NS(C)(=O)=O)ccc1Cc1c2ccccc2nc2ccccc12 | 0.3 | 1.82 | 0.377 | 3.28 | 0.0793 | 1.48 | 0.107 | 0.462 | 0.0258 | 0.141 | 0.042 | 0.751 | 1.44 | 10 |  | 0.139 | 0.139 | 1.53 | 0.461 | 15.6
8 | CC1=C2[C@@H](CC1)[C@]1(C)O[C@@](C(C)C)(C[C@H]1OC(=O)CO)[C@H]2OC(=O)CCCc1ccccc1 | 10.8 | 26.1 | 3.08 | > 100 | 5.88 | 18.5 | 6.04 | 22.9 | 2.21 | 5.27 | 4.65 | 34.7 | 3.87 | 20 | 11.3 | 36.6 | 4.24 | 16.7 | 3.63 | 16.1
9 | CCCS(=O)(=O)Nc1cccc(Nc2ncnc3cc(NC(=O)CCl)ccc23)c1Cl | 1.1 | 4.74 | 3.23 | 8.56 | 0.892 | 3.9 | 3.31 | 11.9 | 4.28 | 10.9 | 1.03 | 4.68 | 6.95 | 25 | 0.838 | 5.49 | 2.32 | 5.95 | 3.44 | 8.44
10 | COc1cc2c(/C=C3/C(=O)Nc4ccc(O)cc43)c(Cl)n(Cc3cc(OC)c(OC)c(OC)c3)c2cc1C | 1.71 | > 55.9 | 2.12 | > 100 | 2.05 | 16.3 | 2.88 | > 27 | 1.97 | 10.3 | 1.38 | 10.9 | 3.41 | > 100 | 0.329 |  | 2.25 | 15 | 1.56 | > 83.6
